Legend:
Assay type in all cases: cell-based
IL8 = assay: IL-1β stimulated IL8 inhibition assay in PBMC; conditions: human PBMCs, IL-1β stimulation, compound overnight, IL8 by MSD after 24 hrs; for IC50: read-out: IL1β stim IL8 inhibition IC50; for Emax: read-out: IL1β stim IL8 inhibition Ymax
Procedure: (§1) IL-1β, LPS, or R848 Stimulated IL6 Inhibition and IL-1β Stimulated IL8 Inhibition Assay
(§2) Human PBMC cells were seeded at 2.0×10^6 cells/mL, treated with compound overnight, and dosed with the EC50 concentration of each stimulant (either IL-1B. LPS, or R848) was determined for each donor. After 24 hrs, media was collected and analyzed by MSD for IL6 and/or IL8 levels.

IRAK-4 [1] = biological target: T1, IRAK-4 (Homo sapiens, UniProt Q9NWZ3); assay: IRAK-4 ELISA, PBMC degradation; design: endogenous in cells; host or cells: PBMC; conditions: treated overnight
T1 sequence (Q9NWZ3 1-460): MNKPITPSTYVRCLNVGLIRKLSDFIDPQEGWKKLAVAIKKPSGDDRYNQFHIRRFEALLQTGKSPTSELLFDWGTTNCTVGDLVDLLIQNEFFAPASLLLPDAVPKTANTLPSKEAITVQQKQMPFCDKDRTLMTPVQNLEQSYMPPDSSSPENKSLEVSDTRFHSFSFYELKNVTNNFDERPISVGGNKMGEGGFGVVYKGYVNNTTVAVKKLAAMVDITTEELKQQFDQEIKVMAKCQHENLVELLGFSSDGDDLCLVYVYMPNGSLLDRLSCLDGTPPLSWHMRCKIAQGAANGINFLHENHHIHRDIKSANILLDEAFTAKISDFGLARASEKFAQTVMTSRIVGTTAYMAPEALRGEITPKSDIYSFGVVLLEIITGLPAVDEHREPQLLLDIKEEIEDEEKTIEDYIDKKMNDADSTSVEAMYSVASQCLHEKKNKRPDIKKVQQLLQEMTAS
How it was run: (§3)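 Steps: seed cells (OCI-Ly10 1×10^6/ml; PBMC 2×10^6/ml); add compound the same day; incubate overnight; lyse; quantify IRAK-4 by matched-pair ELISA.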

IL6 = assay: IL-1β stimulated IL6 inhibition assay in PBMC; conditions: PBMC, human PBMCs, IL-1β stimulation, compound overnight, IL6 by MSD after 24 hrs; for IC50: Homo sapiens, 24 h, read-out: IL1β stim IL6 inhibition IC50; for Emax: read-out: IL1β stim IL6 inhibition Ymax
Procedure: as §1, §2

IRAK-4 [2] = biological target: T1, IRAK-4; assay: IRAK-4 ELISA, OCI-Ly10 degradation; design: endogenous in cells; conditions: treated overnight; for Dmax: OCI-Ly10, OCI-Ly10 cells; for DC50: OCI-Ly10 cells
How it was run: as §3

Compound	IC50 (IL8)	Emax (IL8)	DC50 (IRAK-4 [1])	Dmax (IRAK-4 [1])	PBMC DC90 (IRAK-4 [1])	IC50 (IL6)	Emax (IL6)	Dmax (IRAK-4 [2])	DC50 (IRAK-4 [2])
O=C1CCC(N2Cc3cc(OCCN4CCC(n5cc6cc(NC(=O)c7cnn8cccnc78)c(OCC7CC7)cc6n5)CC4)ccc3C2=O)C(=O)N1 (centres unmarked) [Example 122]	50 to 100 nM	80 to 90%	1 to 5 nM	< 70%	B (B represents a DC90 value ≥10.0 nM and <25.0 nM)	10 to 50 nM	≥ 90%	< 70%	< 10 nM
O=C1CCC(N2Cc3cc(CCN4CCC(n5cc6cc(NC(=O)c7cnn8cccnc78)c(OCC7CC7)cc6n5)CC4)ccc3C2=O)C(=O)N1 (centres unmarked) [Example 126]	< 10 nM	< 70%	1 to 5 nM	< 70%	B (B represents a DC90 value ≥10.0 nM and <25.0 nM)	< 10 nM	≥ 90%	≥ 90%	< 10 nM
O=C1CCC(N2Cc3cc(N4CC(CN5CCC(n6cc7cc(NC(=O)c8cnn9cccnc89)c(OCC8CC8)cc7n6)CC5)C4)ccc3C2=O)C(=O)N1 (centres unmarked) [Example 134]	10 to 50 nM	70 to 80%	< 1 nM	≥ 90%	A (A represents a DC90 value <10.0 nM)	< 10 nM	≥ 90%	≥ 90%	< 10 nM
O=C1CCC(N2Cc3cc(N4CC(CN5CCC(n6cc7cc(NC(=O)c8cnn9cccnc89)c(C8CC8)cc7n6)CC5)C4)ccc3C2=O)C(=O)N1 (centres unmarked) [Example 136]	50 to 100 nM	70 to 80%	< 1 nM	≥ 90%	A (A represents a DC90 value <10.0 nM)	< 10 nM	≥ 90%	70 to 80%	< 10 nM
COc1cc2nn(C3CCN(CC4CCN(c5ccc6c(c5)CN(C5CCC(=O)NC5=O)C6=O)CC4)CC3)cc2cc1NC(=O)c1cnn2cccnc12 (centres unmarked) [Example 141]	10 to 50 nM	80 to 90%	1 to 5 nM	80 to 90%	B (B represents a DC90 value ≥10.0 nM and <25.0 nM)	< 10 nM	≥ 90%	80 to 90%	< 10 nM
COc1cc2nn(C3CCN(CC4CN(c5ccc6c(c5)CN(C5CCC(=O)NC5=O)C6=O)C4)CC3)cc2cc1NC(=O)c1cnn2cccnc12 (centres unmarked) [Example 142]	10 to 50 nM	< 70%	< 1 nM	80 to 90%	A (A represents a DC90 value <10.0 nM)	< 10 nM	≥ 90%	70 to 80%	< 10 nM
COc1cc2nn(C3CCN(CCc4ccc5c(c4)CN(C4CCC(=O)NC4=O)C5=O)CC3)cc2cc1NC(=O)c1cnn2cccnc12 (centres unmarked) [Example 143]	< 10 nM	70 to 80%	1 to 5 nM	≥ 90%	C (C represents a DC90 value ≥25.0 nM and <50 nM)	< 10 nM	≥ 90%	≥ 90%	< 10 nM
O=C1CCC(N2C(=O)c3ccc(N4CC(CN5CCC([C@H](F)Cn6cc7cc(NC(=O)c8cnn9cccnc89)c(OCC8CC8)cc7n6)CC5)C4)cc3C2=O)C(=O)N1 (some centres unmarked) [Example 173]	10 to 50 nM	< 70%	< 1 nM	≥ 90%	A (A represents a DC90 value <10.0 nM)	10 to 50 nM	≥ 90%	≥ 90%	< 10 nM
O=C1CCC(N2C(=O)c3ccc(N4CCC(CN5CCC([C@H](F)Cn6cc7cc(NC(=O)c8cnn9cccnc89)c(OCC8CC8)cc7n6)CC5)CC4)cc3C2=O)C(=O)N1 (some centres unmarked) [Example 182]	< 10 nM	< 70%	< 1 nM	≥ 90%	A (A represents a DC90 value <10.0 nM)	< 10 nM	80 to 90%	≥ 90%	< 10 nM
O=C1CCC(N2C(=O)c3ccc(N4CCC(CN5CC[C@H](n6cc7cc(NC(=O)c8cnn9cccnc89)c(OCC8CC8)cc7n6)[C@@H](F)C5)CC4)cc3C2=O)C(=O)N1 (some centres unmarked) [Example 184]	10 to 50 nM	< 70%	1 to 5 nM	80 to 90%	C (C represents a DC90 value ≥25.0 nM and <50 nM)	10 to 50 nM	80 to 90%	< 70%	< 10 nM
COc1cc2nn(C3CCN(CC4CN(c5ccc6c(c5)C(=O)N(C5CCC(=O)NC5=O)C6=O)C4)CC3)cc2cc1NC(=O)c1cnn2cccnc12 (centres unmarked) [Example 202]	≥ 100 nM	–	< 1 nM	≥ 90%	A (A represents a DC90 value <10.0 nM)	10 to 50 nM	80 to 90%	≥ 90%	< 10 nM
COc1cc2nn(C3CCN(CC4(F)CN(c5ccc6c(c5)C(=O)N(C5CCC(=O)NC5=O)C6=O)C4)CC3)cc2cc1NC(=O)c1cnn2cccnc12 (centres unmarked) [Example 207]	50 to 100 nM	< 70%	1 to 5 nM	≥ 90%	B (B represents a DC90 value ≥10.0 nM and <25.0 nM)	10 to 50 nM	≥ 90%	≥ 90%	< 10 nM
COc1cc2nn([C@H]3CC[C@H](OC4CN(c5ccc6c(c5)C(=O)N(C5CCC(=O)NC5=O)C6=O)C4)CC3)cc2cc1NC(=O)c1cnn2cccnc12 (some centres unmarked) [Example 212]	50 to 100 nM	< 70%	< 1 nM	≥ 90%	A (A represents a DC90 value <10.0 nM)	10 to 50 nM	80 to 90%	≥ 90%	< 10 nM
COc1cc2nn(C3CCN(CC4(F)CN(c5ccc6c(c5)CN(C5CCC(=O)NC5=O)C6=O)C4)CC3)cc2cc1NC(=O)c1cnn2cccnc12 (centres unmarked) [Example 274]	50 to 100 nM	70 to 80%	< 1 nM	80 to 90%	A (A represents a DC90 value <10.0 nM)	10 to 50 nM	≥ 90%	< 70%	< 10 nM
O=C1CCC(N2Cc3cc(N4CCC(F)(CN5CCC(n6cc7cc(NC(=O)c8cnn9cccnc89)c(OCC8CC8)cc7n6)CC5)CC4)ccc3C2=O)C(=O)N1 (centres unmarked) [Example 278]	10 to 50 nM	≥ 90%	< 1 nM	80 to 90%	A (A represents a DC90 value <10.0 nM)	10 to 50 nM	≥ 90%	80 to 90%	< 10 nM
